ChEMBL document CHEMBL5352385, “Marine natural products and their synthetic analogs as promising antibiofilm agents for antibiotics discovery and development” (Eur J Med Chem, 2022)
*1 amine or outer side, *2 acyl side, *3 side chain or, on linkers, in order; H or OH if unused. Where a SMILES comes first, the peptide text is derived from it. [ ]: non-standard residue; d: D form. The star is where a group is joined. X1 = CCCCCCCCCCCCCC(N[*:1])C(=O)[*:2]; Palmitoyl = CCCCCCCCCCCCCCCC(=O)*

Assays:
Format in all cases: functional
Pseudomonas aeruginosa [1] = assay: Antibiofilm activity against Pseudomonas aeruginosa PAO1 at 500 ug/ml incubated for 24 hrs by crystal violet staining based analysis relative to control; conditions: dose 500 µg/ml
Candida albicans [2] = assay: Antibiofilm activity against Candida albicans assessed as inhibition of biofilm formation at 400 ug/ml by microbroth dilution assay relative to control; set-up: scale not given: the % may be the effect or the level left; conditions: dose 400 µg/ml
Candida albicans [3] = assay: Antibiofilm activity against Candida albicans assessed as reduction in biofilm formation at 50 ug/ml measured after 48 hrs by crystal violet staining based analysis relative to control; set-up: scale not given: the % may be the effect or the level left; conditions: dose 50 µg/ml
Staphylococcus aureus [4] = assay: Antibiofilm activity against methicillin-resistant Staphylococcus aureus CH 10850 at 33.2 ug/ml relative to control; conditions: dose 33.2 µg/ml
Escherichia coli [5] = assay: Antibiofilm activity against Escherichia coli at 50.9 ug/ml relative to control; conditions: dose 50.9 µg/ml
Streptococcus mutans [6] = assay: Antibiofilm activity against clinical isolates Streptococcus mutans assessed as inhibition of biofilm formation at 3.0 ug/ml relative to control; set-up: scale not given: the % may be the effect or the level left; conditions: dose 3 µg/ml
Streptococcus mutans [7] = assay: Antibiofilm activity against Streptococcus mutans UA159 assessed as inhibition of biofilm formation at 3.0 ug/ml relative to control; set-up: scale not given: the % may be the effect or the level left; conditions: dose 3 µg/ml
Pseudomonas aeruginosa [8] = assay: Antibiofilm activity against Pseudomonas aeruginosa at 100 ug/ml relative to control; conditions: dose 100 µg/ml
Staphylococcus aureus [9] = assay: Antibiofilm activity against Staphylococcus aureus at 100 ug/ml relative to control; conditions: dose 100 µg/ml
Vibrio anguillarum = assay: Antibiofilm activity against Vibrio anguillarum at 300 ug/ml relative to control; conditions: dose 300 µg/ml
Pseudomonas aeruginosa [10] = assay: Antibiofilm activity against Pseudomonas aeruginosa at 300 ug/ml relative to control; conditions: dose 300 µg/ml
Bacillus subtilis [11] = assay: Antibiofilm activity against Bacillus subtilis at 300 ug/ml relative to control; conditions: dose 300 µg/ml
Bacillus sp. = assay: Antibiofilm activity against Bacillus sp. 176 at 300 ug/ml relative to control; conditions: dose 300 µg/ml
[12] = system: Staphylococcus epidermidis; assay: Antibiofilm activity against Staphylococcus epidermidis
Pseudomonas aeruginosa [13] = assay: Antibiofilm activity against Pseudomonas aeruginosa PA01 at 128 ug/ml relative to control; conditions: dose 128 µg/ml
Escherichia coli [14] = assay: Antibiofilm activity against Escherichia coli assessed as inhibition of biofilm formation
Pseudomonas aeruginosa [15] = assay: Antibiofilm activity against Pseudomonas aeruginosa assessed as inhibition of biofilm formation at 100 to 200 ug/ml relative to control; set-up: scale not given: the % may be the effect or the level left; conditions: dose 100-200 µg/ml; at 100 to 200 µg/mL
Pseudomonas aeruginosa [16] = assay: Antibiofilm activity against Pseudomonas aeruginosa PA01 assessed as inhibition of biofilm formation at 800 ug/ml relative to control; set-up: scale not given: the % may be the effect or the level left; conditions: dose 800 µg/ml
Staphylococcus aureus [17] = assay: Antibiofilm activity against Staphylococcus aureus ATCC 29213 at 0.5 to 4 ug/ml relative to control; conditions: dose 0.5-4 µg/ml; at 0.5 to 4 µg/mL
Escherichia coli [18] = assay: Antibiofilm activity against Escherichia coli at 31.3 ug/ml relative to control; conditions: dose 31.3 µg/ml
Serratia marcescens = assay: Antibiofilm activity against Serratia marcescens FJ584421 assessed as inhibition of biofilm formation at 300 ug/ml relative to control; set-up: scale not given: the % may be the effect or the level left; conditions: dose 300 µg/ml
Bacillus subtilis [19] = assay: Antibiofilm activity against Bacillus subtilis MTCC 619 at 2 ug/ml incubated for 18 hrs by crystal violet staining based analysis relative to control; conditions: dose 2 µg/ml
Staphylococcus aureus [20] = assay: Antibiofilm activity against Staphylococcus aureus MTCC 96 at 2 ug/ml incubated for 18 hrs by crystal violet staining based analysis relative to control; conditions: dose 2 µg/ml
Vibrio cholerae = assay: Antibiofilm activity against Vibrio cholerae MTCC 3906 at 2 ug/ml incubated for 18 hrs by crystal violet staining based analysis relative to control; conditions: dose 2 µg/ml

Question: Which Activity (Pseudomonas aeruginosa [1]) does the source give for `O=C1N[C@@H](Cc2ccc(O)cc2)C(=O)N2CCC[C@@H]12` here?
Answer: 48%

Question: How did the Activity (Candida albicans [2]) turn out when `O=Cc1ccc(CO)o1` [AES-103] was run?
Answer: 86%

Question: `CCCCCCC(C)/C(O)=C1\C(=O)[C@@H](C(C)O)N(C)C1=O` (some centres undefined) was tested. Which Activity (Candida albicans [3]) did it give?
Answer: 80%

Question: For `CC(=O)O[C@@H]1O[C@H]2OC(=O)C3=C(C)[C@@](C)([C@@]4(C)CCCC(C)(C)C4)CC[C@@H]1[C@H]32`, which Activity (Staphylococcus aureus [4]) is on record?
Answer: 50%

Question: For `NC1=N[C@]23CCCN2C(=O)c2[nH]c(Br)c(Br)c2[C@@H]3N1`, which Activity (Escherichia coli [5]) is on record?
Answer: 50%

Question: How did the Activity (Streptococcus mutans [6]) turn out when `C[C@H](CC[C@H](C)C(C)(C)C)[C@H]1CC[C@H]2C3C[C@H](OS(=O)(=O)[O-])[C@H]4C[C@H](OS(=O)(=O)[O-])[C@@H](OS(=O)(=O)[O-])C[C@]4(C)[C@H]3CC[C@]12C.[Na+].[Na+].[Na+]` (some centres undefined) was run?
Answer: 85.2%

Question: What about the Activity (Streptococcus mutans [7]) of the same molecule?
Answer: 99.5%

Question: `CCCC/C=C\CCCCCCCCCCCC=O` was tested. Which Activity (Pseudomonas aeruginosa [8]) did it give?
Answer: 82.657%

Question: And the Activity (Staphylococcus aureus [9])?
Answer: 78.973%

Question: What does the source list for `CCCCCCCCCCCCCC1NC(=O)C(C(C)CC)NC(=O)C(CC(C)C)NC(=O)C(CC(=O)OC)NC(=O)C(CC(C)C)NC(=O)C(CC(C)C)NC(=O)C(CC(C)C)NC(=O)C(CCC(=O)OC)NC1=O` (centres undefined) (cyclo([X1]E(OMe)LLLD(OMe)LI); configuration not given here)?
Answer: Activity (Vibrio anguillarum): >50%; Activity (Pseudomonas aeruginosa [10]): >50%; Activity (Bacillus subtilis [11]): >50%; Activity (Bacillus sp.): >50%

Question: Which results are given for `O=C1Nc2ccc(Br)cc2C1(c1c[nH]c2ccccc12)c1c[nH]c2ccccc12`?
Answer: MBIC [12]: 5 µM; Activity (Pseudomonas aeruginosa [13]): 49.32%

Question: Which MBIC (Escherichia coli [14]) does the source give for `CCCCCCCCC1C=CC(=O)O1` (centres undefined) here?
Answer: 50 µg/mL

Question: And the Activity (Pseudomonas aeruginosa [15])?
Answer: 100%

Question: With `NCCc1ccc(O)cc1` [TYRAMINE] as the molecule, how does the Activity (Pseudomonas aeruginosa [16]) read?
Answer: 28%

Question: `COC(=O)CCN(CCCCCCCCCCCOCCc1ccc[n+](Cc2ccccc2)c1)C(=O)OC(C)(C)C.[Cl-]` was tested. Which Activity (Staphylococcus aureus [17]) did it give?
Answer: 25%

Question: How did the Activity (Escherichia coli [18]) turn out when `NC1=N[C@]23CCCN2C(=O)c2cc(Br)c(Br)n2[C@@H]3N1` [DIBROMOPHAKELLIN] was run?
Answer: 50%

Question: Which Activity (Serratia marcescens) does the source give for `OCCc1ccc(O)cc1` [TYROSOL] here?
Answer: 85.7%

Question: How did the Activity (Bacillus subtilis [19]) turn out when `CCCCCCCCCCCCCCCC(=O)NC(CO)C(=O)NC(CC(=O)O)C(=O)NC(C(=O)NC(CO)C(=O)NC(CO)C(=O)O)C(C)C` (centres undefined) (Palmitoyl-SDVSS-OH; configuration not given here) was run?
Answer: 99%

Question: And the Activity (Staphylococcus aureus [20])?
Answer: 99%

Question: And the Activity (Vibrio cholerae)?
Answer: 99%
